Legend:
Assay type in all cases: in vivo
[1] = tested on: Chilo suppressalis (Striped Rice Stemborer); assay: Example B4: Chilo suppressalis, artificial diet; conditions: 144 h, application rate of 200 ppm, L2 larvae, 6 days after infestation, read-out: control in at least one of the three categories (mortality, anti-feedant effect, or growth inhibition)
In short: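 Diet-incorporation surface assay: aqueous dilutions of 10'000 ppm DMSO stock applied to artificial diet, dried; 6-8 L2 larvae/well; read day 6 post-infestation for mortality, antifeedant effect, growth inhibition vs untreated. Active if any category above untreated.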

[2] = tested on: Diabrotica Balteata (Corn Root Worm); assay: Example B1: Diabrotica balteata, spray on maize sprouts; conditions: 96 h, application rate of 200 ppm, L2 larvae, 4 days after infestation, read-out: control in at least one of the two categories (mortality or growth inhibition)
In short: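 Maize sprouts on agar were sprayed with aqueous test solutions made from 10′000 ppm DMSO stocks, dried, then infested with 6 to 10 L2 larvae per well. Mortality and growth inhibition were scored against untreated samples 4 days after infestation.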

[3] = tested on: Plutella xylostella (Diamond Back Moth); assay: Example B5: Plutella xylostella, artificial diet, 24-well; conditions: 192 h, application rate of 200 ppm, eggs, 8 days after infestation, read-out: control in at least one of the two categories (mortality or growth inhibition)
Experimental: 24-well microtiter plates with artificial diet were treated with aqueous test solutions prepared from 10′000 ppm DMSO stock solutions by pipetting. After drying, Plutella eggs were pipetted through a plastic stencil onto a gel blotting paper and the plate was closed with it. The samples were assessed for mortality and growth inhibition in comparison to untreated samples 8 days after infestation.

[4] = tested on: Plutella xylostella (Diamondback Moth); assay: Example B13: Plutella xylostella, artificial diet, 96-well; conditions: 216 h, application rate of 500 ppm, eggs/L1 larvae, 9 days after infestation
Experimental: 96-well microtiter plates containing artificial diet were treated with aqueous test solutions, prepared from 10′000 ppm DMSO stock solutions, by a liquid handling robot. After drying, eggs (˜30 per well) were infested onto a netted lid which was suspended above the diet. The eggs hatch and L1 larvae move down to the diet. The samples were assessed for mortality 9 days after infestation.

[5] = tested on: Spodoptera littoralis (Egyptian Cotton Leaf Worm); assay: Example B9: Spodoptera littoralis, spray on cotton leaf discs; conditions: foliar, 72 h, application rate of 200 ppm, L1 larvae, 3 days after infestation, read-out: control in at least one of the three categories (mortality, anti-feedant effect, or growth inhibition)
In short: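 Leaf discs on agar sprayed with aqueous dilutions of 10′000 ppm DMSO stocks, dried, then infested with five L1 larvae. Mortality, anti-feeding and growth inhibition scored versus untreated 3 days after infestation; control given when any category exceeds untreated.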

[6] = tested on: Spodoptera littoralis (Egyptian Cotton Leaf Worm); assay: Example B10: Spodoptera littoralis, uptake by lettuce roots from agar; conditions: 144 h, test rate of 12.5 ppm, eggs, 6 days after infestation, read-out: control in at least one of the three categories (mortality, anti-feedant, or growth inhibition)
Source text: Test compounds were applied by pipette from 10′000 ppm DMSO stock solutions into 24-well plates and mixed with agar. Lettuce seeds were placed onto the agar and the multi well plate was closed by another plate which contained also agar. After 7 days the compound was absorbed by the roots and the lettuce grew into the lid plate. The lettuce leaves were then cut off into the lid plate. Spodoptera eggs were pipetted through a plastic stencil onto a humid gel blotting paper and the lid plate was closed with it. The samples were assessed for mortality, anti-feedant effect and growth inhibition in comparison to untreated samples 6 days after infestation.

[7] = tested on: Euschistus heros (Neotropical Brown Stink Bug); assay: Example B2: Euschistus heros, spray on soybean leaves; conditions: 120 h, application rate of 200 ppm, N2 nymphs, 5 days after infestation, read-out: control in at least one of the two categories (mortality or growth inhibition)
Experimental: Soybean leaves on agar in 24-well microtiter plates were sprayed with aqueous test solutions prepared from 10′000 ppm DMSO stock solutions. After drying the leaves were infested with N2 nymphs. The samples were assessed for mortality and growth inhibition in comparison to untreated samples 5 days after infestation.

[8] = tested on: Tetranychus urticae (Two-Spotted Spider Mite); assay: Example B14: Tetranychus urticae, feeding/contact activity; conditions: 192 h
Experimental: Bean leaf discs on agar in 24-well microtiter plates were sprayed with aqueous test solutions prepared from 10′000 ppm DMSO stock solutions. After drying the leaf discs were infested with a mite population of mixed ages. The samples were assessed for mortality on mixed population (mobile stages) 8 days after infestation.

[9] = tested on: Myzus persicae (Green Peach Aphid); assay: Example B12: Myzus persicae, sucrose solution, 96-well; conditions: 120 h, application rate of 50 ppm, 5 days after infestation
Experimental: Test compounds prepared from 10′000 ppm DMSO stock solutions were applied by a liquid handling robot into 96-well microtiter plates and mixed with a sucrose solution. Parafilm was stretched over the 96-well microtiter plate and a plastic stencil with 96 holes was placed onto the plate. Aphids were sieved into the wells directly onto the Parafilm. The infested plates were closed with a gel blotting card and a second plastic stencil and then turned upside down. The samples were assessed for mortality 5 days after infestation.

[10] = tested on: Myzus persicae (Green Peach Aphid); assay: Example B6: Myzus persicae, feeding/contact activity; conditions: 144 h, application rate of 200 ppm, mixed ages, 6 days after infestation
Experimental: Sunflower leaf discs were placed onto agar in a 24-well microtiter plate and sprayed with aqueous test solutions prepared from 10′000 ppm DMSO stock solutions. After drying, the leaf discs were infested with an aphid population of mixed ages. The samples were assessed for mortality 6 days after infestation.

CC(c1nc(Br)nn1-c1ccc(C#N)cn1)N(C)C(=O)c1cc(C(F)(F)F)cc(C(F)(F)F)c1 (centres unmarked) [Compound P12, N-[1-[5-bromo-2-(5-cyano-2-pyridyl)-1,2,4-triazol-3-yl]ethyl]-N-methyl-3,5-bis(trifluoromethyl) benzamide]
≥ 80%: percent control (mortality, anti-feedant effect or growth inhibition) at 200 ppm [1] | percent control (mortality or growth inhibition) at 200 ppm [2] | percent control (mortality or growth inhibition) at 200 ppm [3] | mortality at 500 ppm [4] | percent control (mortality, anti-feedant effect or growth inhibition) at 200 ppm [5] | percent control (mortality, anti-feedant effect or growth inhibition) at 12.5 ppm [6] | percent control (mortality or growth inhibition) at 200 ppm [7]

CC(NC(=O)c1cc(OC(F)F)cc(C(F)(F)F)c1)c1nc(Br)nn1-c1ccc(OCC(F)F)cn1 (centres unmarked) [Compound P16, N-[1-[5-bromo-2-[5-(2,2-difluoroethoxy)-2-pyridyl]-1,2,4-triazol-3-yl]ethyl]-3-(difluoromethoxy)-5-(trifluoromethyl) benzamide]
≥ 80%: percent control (mortality, anti-feedant effect or growth inhibition) at 200 ppm [1] | percent control (mortality or growth inhibition) at 200 ppm [2] | percent control (mortality or growth inhibition) at 200 ppm [3] | mortality at 200 ppm [8] | mortality at 500 ppm [4] | percent control (mortality, anti-feedant effect or growth inhibition) at 200 ppm [5]

CC(NC(=O)c1cc(OC(F)F)cc(C(F)(F)F)c1)c1nc(Br)nn1-c1ncc(OCC(F)F)cn1 (centres unmarked) [Compound P23, N-[1-[5-bromo-2-[5-(2,2-difluoroethoxy)pyrimidin-2-yl]-1,2,4-triazol-3-yl]ethyl]-3-(difluoromethoxy)-5-(trifluoromethyl)be nzamide]
≥ 80%: percent control (mortality, anti-feedant effect or growth inhibition) at 200 ppm [1] | percent control (mortality or growth inhibition) at 200 ppm [2] | percent control (mortality or growth inhibition) at 200 ppm [3] | mortality at 50 ppm [9] | mortality at 500 ppm [4] | percent control (mortality, anti-feedant effect or growth inhibition) at 200 ppm [5]

CC(NC(=O)c1cc(Br)cc(C(F)(F)F)c1)c1nc(Br)nn1-c1ccc(OCC(F)F)cn1 (centres unmarked) [Compound P35, 3-bromo-N-[1-[5-bromo-2-[5-(2,2-difluoroethoxy)-2-pyridyl]-1,2,4-triazol-3-yl]ethyl]-5-(trifluoromethyl) benzamide]
≥ 80%: mortality at 200 ppm [10] | percent control (mortality, anti-feedant effect or growth inhibition) at 200 ppm [1] | percent control (mortality or growth inhibition) at 200 ppm [2] | percent control (mortality or growth inhibition) at 200 ppm [3] | mortality at 500 ppm [4] | percent control (mortality, anti-feedant effect or growth inhibition) at 200 ppm [5]

CC(NC(=O)c1cc(C(F)F)cc(C(F)(F)F)c1)c1nc(Br)nn1-c1ncc(OCC(F)F)cn1 (centres unmarked) [Compound P40, N-[1-[5-bromo-2-[5-(2,2-difluoroethoxy)pyrimidin-2-yl]-1,2,4-triazol-3-yl]ethyl]-3-(difluoromethyl)-5-(trifluoromethyl) benzamide]
≥ 80%: percent control (mortality, anti-feedant effect or growth inhibition) at 200 ppm [1] | percent control (mortality or growth inhibition) at 200 ppm [2] | percent control (mortality or growth inhibition) at 200 ppm [3] | mortality at 500 ppm [4] | percent control (mortality, anti-feedant effect or growth inhibition) at 200 ppm [5] | percent control (mortality or growth inhibition) at 200 ppm [7]

CC(NC(=O)c1cc(Cl)cc(C(F)(F)F)c1)c1nc(Br)nn1-c1ncc(OCC(F)(F)F)cn1 (centres unmarked) [Compound P43, N-[1-[5-bromo-2-[5-(2,2,2-trifluoroethoxy)pyrimidin-2-yl]-1,2,4-triazol-3-yl]ethyl]-3-chloro-5-(trifluoromethyl) benzamide]
≥ 80%: percent control (mortality, anti-feedant effect or growth inhibition) at 200 ppm [1] | percent control (mortality or growth inhibition) at 200 ppm [2] | percent control (mortality or growth inhibition) at 200 ppm [3] | mortality at 50 ppm [9] | mortality at 500 ppm [4] | percent control (mortality, anti-feedant effect or growth inhibition) at 200 ppm [5]

CC(NC(=O)c1cc(OCC(F)F)cc(C(F)(F)F)c1)c1nc(Br)nn1-c1ncc(OCC(F)F)cn1 (centres unmarked) [Compound P47, N-[1-[5-bromo-2-[5-(2,2-difluoroethoxy)pyrimidin-2-yl]-1,2,4-triazol-3-yl]ethyl]-3-(2,2-difluoroethoxy)-5-(trifluoromethyl) benzamide]
≥ 80%: percent control (mortality, anti-feedant effect or growth inhibition) at 200 ppm [1] | percent control (mortality or growth inhibition) at 200 ppm [3] | mortality at 50 ppm [9] | mortality at 500 ppm [4] | percent control (mortality, anti-feedant effect or growth inhibition) at 200 ppm [5]

CC(NC(=O)c1cc(C(F)F)cc(C(F)(F)F)c1)c1nc(Br)nn1-c1ccc(OCC(F)F)cn1 (centres unmarked) [Compound P52, N-[1-[5-bromo-2-[5-(2,2-difluoroethoxy)-2-pyridyl]-1,2,4-triazol-3-yl]ethyl]-3-(difluoromethyl)-5-(trifluoromethyl) benzamide]
≥ 80%: percent control (mortality, anti-feedant effect or growth inhibition) at 200 ppm [1] | percent control (mortality or growth inhibition) at 200 ppm [2] | percent control (mortality or growth inhibition) at 200 ppm [3] | mortality at 500 ppm [4] | percent control (mortality, anti-feedant effect or growth inhibition) at 200 ppm [5] | percent control (mortality or growth inhibition) at 200 ppm [7]

CC(NC(=O)c1cc(OCC(F)F)cc(C(F)(F)F)c1)c1nc(Br)nn1-c1ccc(OCC(F)(F)F)cn1 (centres unmarked) [Compound P55, N-[1-[5-bromo-2-[5-(2,2,2-trifluoroethoxy)-2-pyridyl]-1,2,4-triazol-3-yl]ethyl]-3-(2,2-difluoroethoxy)-5-(trifluoromethyl) benzamide]
≥ 80%: mortality at 200 ppm [10] | percent control (mortality or growth inhibition) at 200 ppm [3]
